As usually defined, the IC50 is the midpoint of a concentration-inhibition curve. The EC50 is the concentration needed to bring the measured effect to its halfway point.

One assay addresses Human Cot (Homo sapiens (Human), UniProt P41279). Kind of assay: High Throughput Cot Biochemical Assay. The following applies: IC50 HTRF, Cot HTRF (TR-FRET) biochemical assay.
Another assay concerns TNFα. Kind of assay: Cot Monocyte TNFα Cell Based Assay.
[1] abbreviates: Homo sapiens, Monocyte, read-out: EC50 TNF, LPS-stimulated human monocytes, TNFα.
Where [2] appears, read: Homo sapiens, Monocyte, read-out: EC50 TNF, LPS-stimulated human monocytes, TNFα TR-FRET.
Setting [3] is: read-out: EC50 TNF, LPS-stimulated human monocytes, TNFα.

Like-named read-outs stand apart in the source and are kept apart here.

Sequence of Human Cot (P41279 30-397): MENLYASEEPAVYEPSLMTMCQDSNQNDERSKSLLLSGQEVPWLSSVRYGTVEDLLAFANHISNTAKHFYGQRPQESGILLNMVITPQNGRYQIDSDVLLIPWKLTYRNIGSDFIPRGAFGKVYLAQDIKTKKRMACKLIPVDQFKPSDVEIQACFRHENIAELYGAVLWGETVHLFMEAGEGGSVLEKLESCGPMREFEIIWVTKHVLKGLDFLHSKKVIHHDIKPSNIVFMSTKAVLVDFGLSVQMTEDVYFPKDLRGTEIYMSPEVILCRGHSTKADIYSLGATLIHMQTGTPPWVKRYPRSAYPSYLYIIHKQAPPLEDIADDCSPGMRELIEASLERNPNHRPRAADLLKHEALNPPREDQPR

Regarding `[2H]C(Nc1cc(Cl)c2ncc(C#N)c(NCC(C)(C)C)c2c1)(c1cn(C2CC2)nn1)c1ccc(F)nc1C` (stereo not drawn) [Example 111, 8-chloro-6-(((1-cyclopropyl-1H-1,2,3-triazol-4-yl)(6-fluoro-2-methylpyridin-3-yl)methyl-d)amino)-4-(neopentylamino)quinoline-3-carbonitrile], on Human Cot, the IC50 is 2 nM.

The compound `Cn1ccc2c([C@H](Nc3cc(Cl)c4ncc(C#N)c(NCC(C)(C)C(F)(F)F)c4c3)c3cn(C45CC(C4)C5)nn3)cccc2c1=O` [Example 785, (S)-6-(((1-(bicyclo[1.1.1]pentan-1-yl)-1H-1,2,3-triazol-4-yl)(2-methyl-1-oxo-1,2-dihydroisoquinolin-5-yl)methyl)amino)-8-chloro-4-((3,3,3-trifluoro-2,2-dimethylpropyl)amino)quinoline-3-carbonitrile] had a half-inhibitory concentration (IC50) against Human Cot of 2 nM.

For the compound `Cc1ncoc1[C@H](Nc1cc(Cl)c2ncc(C#N)c(Nc3ccc(F)c(Cl)c3)c2c1)c1cn(C2CCN(C(C)(C)C)CC2)nn1` [Example 265, (R)-6-(((1-(1-(tert-butyl)piperidin-4-yl)-1H-1,2,3-triazol-4-yl)(4-methyloxazol-5-yl)methyl)amino)-8-chloro-4-((3-chloro-4-fluorophenyl)amino)quinoline-3-carbonitrile], the EC50 in the assay with TNFα (setting [1]) came to 426 nM.

`CC[C@@H](Nc1c(C#N)cnc2c(Cl)cc(N[C@@H](c3cccnc3)c3cn([C@@H](C)CF)nn3)cc12)c1ccccc1` [Example 181, 8-chloro-6-(((S)-(1-((S)-1-fluoropropan-2-yl)-1H-1,2,3-triazol-4-yl)(pyridin-3-yl)methyl)amino)-4-(((R)-1-phenylpropyl)amino)quinoline-3-carbonitrile]: in the assay with TNFα (setting [1]), the EC50 turned out to be 92 nM.

As for `CC(C)n1cc([C@@H](Nc2cc(Cl)c3ncc(C#N)c(Nc4ccc(F)c(Cl)c4)c3c2)c2cncs2)nn1` [Example 303, (R)-8-chloro-4-((3-chloro-4-fluorophenyl)amino)-6-(((1-isopropyl-1H-1,2,3-triazol-4-yl)(thiazol-5-yl)methyl)amino)quinoline-3-carbonitrile], the EC50 in the assay on TNFα (setting [1]) turned out to be 868 nM.

For `CC(C)(C)CNc1c(C#N)cnc2c(Cl)cc(N[C@H](c3cn(C4(C(F)(F)F)CC4)nn3)c3cccn4cncc34)cc12` [Example 599, (S)-8-chloro-6-((imidazo[1,5-a]pyridin-8-yl(1-(1-(trifluoromethyl)cyclopropyl)-1H-1,2,3-triazol-4-yl)methyl)amino)-4-(neopentylamino)quinoline-3-carbonitrile], in the assay with TNFα (setting [1]), the EC50 was found to be 316 nM.

For the compound `COc1ccc([C@H](Nc2cc(Cl)c3ncc(C#N)c(NCC(C)(C)C)c3c2)c2nnn(C3(C(F)F)CC3)c2OC)c(C)n1` [Example 966, (S)-8-chloro-6-(((1-(1-(difluoromethyl)cyclopropyl)-5-methoxy-1H-1,2,3-triazol-4-yl)(6-methoxy-2-methylpyridin-3-yl)methyl)amino)-4-(neopentylamino)quinoline-3-carbonitrile], the concentration for a half-maximal effect (EC50) with TNFα (setting [2]) was 191 nM.

On to `Cc1nc(C)c([C@H](Nc2cc(Cl)c3ncc(C#N)c(Nc4ccc(F)c(Cl)c4)c3c2)c2cn(C3CCN(C(C)(C)C)CC3)nn2)s1` [Example 261, (R)-6-(((1-(1-(tert-butyl)piperidin-4-yl)-1H-1,2,3-triazol-4-yl)(2,4-dimethyl-thiazol-5-yl)methyl)amino)-8-chloro-4-((3-chloro-4-fluorophenyl)amino)-quinoline-3-carbonitrile], for which the EC50 in the assay on TNFα (setting [1]) is 344 nM.

On to `Cn1ncc2cccc([C@H](Nc3cc(C#N)c4ncc(C#N)c(NCC(C)(C)C)c4c3)c3cn(C4(C(F)(F)F)CC4)nn3)c21` [Example 526, (S)-6-(((1-methyl-1H-indazol-7-yl)(1-(1-(trifluoromethyl)cyclopropyl)-1H-1,2,3-triazol-4-yl)methyl)amino)-4-(neopentylamino)quinoline-3,8-dicarbonitrile], for which, in the assay on TNFα (setting [1]), the EC50 was determined as 73 nM.

With `CC(C)(C)CNc1c(C#N)cnc2c(C#N)cc(N[C@H](c3cn(C4CC4)nn3)c3cccc4c3CNC4=O)cc12` [Example 76, (S)-6-(((1-cyclopropyl-1H-1,2,3-triazol-4-yl)(1-oxoisoindolin-4-yl)methyl)amino)-4-(neopentylamino)quinoline-3,8-dicarbonitrile], in the assay on TNFα (setting [1]), the EC50 was found to be 981 nM.

With `N#Cc1cnc2c(Cl)cc(N[C@@H](c3cccnc3)c3cn(C4CCN(C5COC5)CC4)nn3)cc2c1Nc1ccc(F)c(Cl)c1` [Example 314, (S)-8-chloro-4-((3-chloro-4-fluorophenyl)amino)-6-(((1-(1-(oxetan-3-yl)piperidin-4-yl)-1H-1,2,3-triazol-4-yl)(pyridin-3-yl)methyl)amino)quinoline-3-carbonitrile], the EC50 in the assay with TNFα (setting [1]) stood at 302 nM.

As to `CC(C)(C)CNc1c(C#N)cnc2c(C#N)cc(N[C@H](c3cn(C4(C(F)F)CC4)nn3)c3cccc4cnccc34)cc12` [Example 551], the concentration giving a half-maximal response (EC50) with TNFα (setting [3]) is 27 nM.

Regarding `COc1nccc2c([C@H](Nc3cc(Cl)c4ncc(C#N)c(NCC(C)(C)C(F)(F)F)c4c3)c3cn(C45CC(C4)C5)nn3)cccc12` [Example 928, (S)-6-(((1-(bicyclo[1.1.1]pentan-1-yl)-1H-1,2,3-triazol-4-yl)(1-methoxylsoquinolin-5-yl)methyl)amino)-8-chloro-4-((3,3,3-trifluoro-2,2-dimethylpropyl)amino)quinoline-3-carbonitrile], in the assay on TNFα (read-out: EC50 TNF, LPS-stimulated human monocytes, TNFα TR-FRET), the EC50 is 99 nM.

Consider `CC(C)(C)CNc1c(C#N)cnc2c(C#N)cc(N[C@H](c3cn(C4(C(F)(F)F)CC4)nn3)c3cccc4c(C#N)nccc34)cc12` [Example 817, (S)-6-(((1-cyanoisoquinolin-5-yl)(1-(1-(trifluoromethyl)cyclopropyl)-1H-1,2,3-triazol-4-yl)methyl)amino)-4-(neopentylamino)quinoline-3,8-dicarbonitrile], for which the EC50 in the assay on TNFα (setting [2]) was 116 nM.

As for `CCN1CCC(n2cc(C(Nc3cc(Cl)c4ncc(C#N)c(Nc5ccc(F)c(Cl)c5)c4c3)c3ncccn3)nn2)CC1` (stereo not drawn) [Example 367, 8-chloro-4-((3-chloro-4-fluorophenyl)amino)-6-(((1-(1-ethylpiperidin-4-yl)-1H-1,2,3-triazol-4-yl)(pyrimidin-2-yl)methyl)-amino)quinoline-3-carbonitrile], in the assay with TNFα (setting [1]), the 50% effective concentration (EC50) worked out at 338 nM.

As for `Cc1ccc([C@H](Nc2cc(Cl)c3ncc(C#N)c(Nc4ccc(F)c(Cl)c4)c3c2)c2cn(C3CCN(C(C)(C)C)CC3)nn2)cn1` [Example 281, (S)-6-(((1-(1-(tert-butyl)piperidin-4-yl)-1H-1,2,3-triazol-4-yl)(6-methylpyridin-3-yl)methyl)amino)-8-chloro-4-((3-chloro-4-fluorophenyl)-amino)quinoline-3-carbonitrile], the EC50 with TNFα (setting [1]) was 575 nM.

With `Cc1nc(F)ccc1[C@H](Nc1cc(Cl)c2ncc(C#N)c(N[C@H](C)C(C)(C)C)c2c1)c1cn(C2(C(F)(F)F)CC2)nn1` [Example 582, 8-chloro-4-(((R)-3,3-dimethylbutan-2-yl)amino)-6-(((S)-(6-fluoro-2-methylpyridin-3-yl)(1-(1-(trifluoromethyl)cyclopropyl)-1H-1,2,3-triazol-4-yl)methyl)amino)quinoline-3-carbonitrile], in the assay on TNFα (setting [1]), the EC50 was 184 nM.

With `CC(C)(C)N1CCC(n2cc([C@@H](Nc3cc(Cl)c4ncc(C#N)c(Nc5ccc(F)c(Cl)c5)c4c3)c3cccc4c3CCN4)nn2)CC1` [Example 60, (S)-6-(((1-(1-(tert-butyl)piperidin-4-yl)-1H-1,2,3-triazol-4-yl)(indolin-4-yl)methyl)amino)-8-chloro-4-((3-chloro-4-fluorophenyl)amino)quinoline-3-carbonitrile], in the assay with TNFα (setting [1]), the EC50 turned out to be 131 nM.

As to `CC(C)n1ccc2c([C@H](Nc3cc(Cl)c4ncc(C#N)c(NCC(C)(C)C)c4c3)c3cn(C4(C)CC4)nn3)cccc2c1=O` [Example 774, (S)-8-chloro-6-(((2-isopropyl-1-oxo-1,2-dihydroisoquinolin-5-yl)(1-(1-methylcyclopropyl)-1H-1,2,3-triazol-4-yl)methyl)amino)-4-(neopentyl-amino)quinoline-3-carbonitrile], the EC50 in the assay on TNFα (setting [1]) came out at 40 nM.

Take `CC1(n2cc([C@@H](Nc3cc(C#N)c4ncc(C#N)c(NCC(C)(C)C(F)(F)F)c4c3)c3cccc4ncccc34)nn2)CC1` [Example 895, (S)-6-(((1-(1-methylcyclopropyl)-1H-1,2,3-triazol-4-yl)(quinolin-5-yl)methyl)amino)-4-((3,3,3-trifluoro-2,2-dimethylpropyl)amino)quinoline-3,8-dicarbonitrile]: in the assay with TNFα (setting [2]), the EC50 turned out to be 41 nM.

Take `CCN1CCC(n2cc(CNc3cc(Cl)c4ncc(C#N)c(Nc5ccc(F)c(Cl)c5)c4c3)nn2)CC1` [Comparative Example 1, reference compound]: the “IC50/EC50 [nM]: EC50 (TNFα)” value in the assay on TNFα (second value of the cell IC50/EC50, LPS-stimulated human monocytes, TNFα by TR-FRET) amounted to 310 nM.

Regarding `Cc1nc(F)ccc1[C@H](Nc1cc(Cl)c2ncc(C#N)c(NCC(C)(C)C)c2c1)c1cn(CC(C)(C)C(F)(F)F)nn1` [Example 755], the EC50 in the assay on TNFα (setting [3]) is 365 nM.

Turning to `CC(C)n1cc([C@@H](Nc2cc(Cl)c3ncc(C#N)c(Nc4ccc(F)c(Cl)c4)c3c2)c2cocn2)nn1` [Example 312, (S)-8-chloro-4-((3-chloro-4-fluorophenyl)amino)-6-(((1-isopropyl-1H-1,2,3-triazol-4-yl)(oxazol-4-yl)methyl)amino)quinoline-3-carbonitrile], the EC50 with TNFα (setting [1]) was found to be 1240 nM.

Take `Cc1nc(F)ccc1[C@H](Nc1cc(C#N)c2ncc(C#N)c(NCC(C)(C)C#N)c2c1)c1cn(C2(C(F)(F)F)CC2)nn1` [Example 615, (S)-4-((2-cyano-2-methylpropyl)amino)-6-(((6-fluoro-2-methylpyridin-3-yl)(1-(1-(trifluoromethyl)cyclopropyl)-1H-1,2,3-triazol-4-yl)methyl)amino)quinoline-3,8-dicarbonitrile]: in the assay on TNFα (setting [1]), the EC50 amounted to 588 nM.

For the origin of these results see patent publication US11066414B2, “Cot modulators and methods of use thereof” (Gilead Sciences, Inc., priority 2015, dated 2021).
